This note sets out measurements from ChEMBL document CHEMBL1212748, “Patients with long-term oral carriage harbor high-persister mutants of Candida albicans” (2010).

SMILES strings stand for the structures. In brackets after ≈: the same amount, converted by molar mass. Activity calls are given as the source filed them. The rule behind the calls is not given here.

The test system of test [1] is Candida albicans. Nature of the test: Antimicrobial activity against Candida albicans high-persister mutants assessed as microbial death at 50 ug/ml after 48 hrs by broth microdilution method. Format: functional, organism-based. In general terms: Dilution methods test growth across graded concentrations, often in twofold steps.
Test [2] deals with Candida albicans. The experiment in a line: Antimicrobial activity against Candida albicans CAF2-1 assessed as microbial death at 10 to 100 ug/ml after 48 hrs by broth microdilution method. In kind it is functional, organism-based.
Test [3] relates to Candida albicans. Nature of the test: Antimicrobial activity against Candida albicans low-persister mutants assessed as microbial death at 10 to 100 ug/ml after 48 hrs by broth microdilution method. Format: functional, organism-based.
Test [4] relates to Candida albicans. Nature of the test: Antimicrobial activity against Candida albicans high-persister mutants assessed as microbial death at 10 to 100 ug/ml after 48 hrs by broth microdilution method. Format: functional, organism-based.
Test [5] deals with Candida albicans. The experiment in a line: Antimicrobial activity against Candida albicans high-persister mutants after 48 hrs by broth microdilution method. In kind it is functional.

On to `C[C@@H]1[C@H](O)[C@@H](C)/C=C/C=C/C=C/C=C/C=C/C=C/C=C/[C@H](O[C@@H]2O[C@H](C)[C@@H](O)[C@H](N)[C@@H]2O)C[C@@H]2O[C@](O)(C[C@@H](O)C[C@@H](O)[C@H](O)CC[C@@H](O)C[C@@H](O)CC(=O)O[C@H]1C)C[C@H](O)[C@H]2C(=O)O`, for which, in the test with Candida albicans [1], the result was inactive. The outcome in the test on Candida albicans [2], in the test with Candida albicans [3] and in the test with Candida albicans [4] was Active.
By MIC is commonly meant the least concentration at which growth counts as inhibited. In the case of `N=C(NCCCCCCNC(=N)NC(=N)Nc1ccc(Cl)cc1)NC(=N)Nc1ccc(Cl)cc1` [CHLORHEXIDINE], 1.5 µg/mL (≈ 2.97 µM) was the least that counted as inhibitory in the test on Candida albicans [5] (MIC).
